Data taken from ChEMBL document CHEMBL1133958, “Derivatives of (2R,3R,4S)-2-aminomethylpyrrolidine-3,4-diol are selective alpha-mannosidase inhibitors” (Bioorg Med Chem Lett, 2001).
Activity calls are given as the source filed them. No cut-off for these calls is given here.

Legend:
[1] = biological target: T1, Alpha-glucosidase (Oryza sativa Japonica Group) (UniProt Q9LGC6); test: Percentage inhibition of Alpha-glucosidase from Rice (maltase) at 1 mM; […]
T1 sequence (whole entry): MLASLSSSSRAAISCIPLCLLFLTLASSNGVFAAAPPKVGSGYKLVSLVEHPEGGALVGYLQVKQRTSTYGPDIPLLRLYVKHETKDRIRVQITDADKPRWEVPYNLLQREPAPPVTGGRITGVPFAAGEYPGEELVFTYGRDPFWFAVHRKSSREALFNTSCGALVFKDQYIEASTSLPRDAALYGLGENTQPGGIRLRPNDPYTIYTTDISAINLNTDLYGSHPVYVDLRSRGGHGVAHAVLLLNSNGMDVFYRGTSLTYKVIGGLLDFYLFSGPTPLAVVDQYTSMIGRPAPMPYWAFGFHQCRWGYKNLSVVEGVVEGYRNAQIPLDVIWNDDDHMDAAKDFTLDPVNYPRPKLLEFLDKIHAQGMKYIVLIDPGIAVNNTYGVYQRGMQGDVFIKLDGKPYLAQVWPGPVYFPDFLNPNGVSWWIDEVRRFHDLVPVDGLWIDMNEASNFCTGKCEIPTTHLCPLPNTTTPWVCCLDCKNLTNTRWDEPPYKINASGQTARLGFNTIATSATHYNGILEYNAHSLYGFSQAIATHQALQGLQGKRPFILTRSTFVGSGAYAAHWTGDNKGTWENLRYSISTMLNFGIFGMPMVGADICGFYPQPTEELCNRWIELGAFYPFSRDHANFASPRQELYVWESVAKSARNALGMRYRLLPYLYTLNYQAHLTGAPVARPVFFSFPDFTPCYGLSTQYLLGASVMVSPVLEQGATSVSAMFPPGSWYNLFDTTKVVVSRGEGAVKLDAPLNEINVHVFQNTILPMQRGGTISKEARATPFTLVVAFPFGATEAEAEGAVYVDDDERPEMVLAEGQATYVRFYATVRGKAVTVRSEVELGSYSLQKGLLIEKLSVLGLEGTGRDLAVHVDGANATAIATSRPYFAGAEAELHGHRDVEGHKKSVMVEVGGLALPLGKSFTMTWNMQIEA

[2] = test system: Alpha-mannosidase (Prunus dulcis); test: Percentage inhibition of Alpha-mannosidase from Almond at 1 mM
Saccharomyces cerevisiae = test: Percentage inhibition of Alpha-glucosidase from Yeast (maltase) at 1 mM
[3] = biological target: Beta-glucosidase A (Caldicellulosiruptor saccharolyticus) (UniProt P10482); test: Percentage inhibition of Beta-Glucosidase from Caldocellum saccharol. at 1 mM
Beta-glucosidase A (Caldicellulosiruptor saccharolyticus), sequence (P10482 whole entry): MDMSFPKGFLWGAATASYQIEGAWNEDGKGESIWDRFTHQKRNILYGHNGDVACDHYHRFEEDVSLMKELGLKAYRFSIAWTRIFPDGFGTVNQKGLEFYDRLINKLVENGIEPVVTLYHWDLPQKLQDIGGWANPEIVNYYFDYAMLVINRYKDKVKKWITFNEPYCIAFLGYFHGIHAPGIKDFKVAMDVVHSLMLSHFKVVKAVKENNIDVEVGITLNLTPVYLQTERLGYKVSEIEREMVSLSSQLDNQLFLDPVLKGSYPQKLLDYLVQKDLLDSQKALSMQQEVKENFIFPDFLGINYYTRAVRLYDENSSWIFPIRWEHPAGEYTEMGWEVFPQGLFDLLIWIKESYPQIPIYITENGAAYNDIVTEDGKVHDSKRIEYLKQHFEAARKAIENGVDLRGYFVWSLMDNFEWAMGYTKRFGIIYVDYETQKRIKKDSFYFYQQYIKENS

- inhibition [1]: inactive
- inhibition [2]: 59%
- inhibition (Saccharomyces cerevisiae): 55%
- inhibition [3]: 76%
Compound: OC1CNC(CNCC2CCN(Cc3ccccc3)CC2)C1O (centres undefined)
